# Assay results reported in patent US12371454B2, “Cyclic peptide compound having Kras inhibitory action” (priority 2019, dated 2025).
# Starred links: 1 amine or outer side, 2 acyl side, 3 side chain; linkers in the order of their positions; H or OH if unused. Positions of bridges follow the written chain, without caps; N, C: chain ends. Non-standard residues stand in square brackets, D forms with d. Residues, ends and D or L forms follow the SMILES beside them. *: point of attachment. hPhe(3,5-F2-4-CF3) = N[C@@H](CCc1cc(F)c(C(F)(F)F)c(F)c1)C(=O)O; hPhe(3-Cl-4-CF3) = N[C@@H](CCc1ccc(C(F)(F)F)c(Cl)c1)C(=O)O; X38 = CN([C@@H](Cc1cccc(OC(F)(F)F)c1)C(=O)[*:2])[*:1]; NMePhe(4-CF3) = CN[C@@H](Cc1ccc(C(F)(F)F)cc1)C(=O)O; X5 = CC(C)(C)NC(=O)COC[C@H](CC(=O)[*:1])N[*:2]; NMePhe(3-CN) = CN[C@@H](Cc1cccc(C#N)c1)C(=O)O; NMePhe(3-OMe) = CN[C@@H](Cc1cccc(OC)c1)C(=O)O; NMePhe(4-CN) = CN[C@@H](Cc1ccc(C#N)cc1)C(=O)O; NMePhe(3-Br) = CN[C@@H](Cc1cccc(Br)c1)C(=O)O; NMePhe(4-Br) = CN[C@@H](Cc1ccc(Br)cc1)C(=O)O; NMePhe(4-Me) = CN[C@@H](Cc1ccc(C)cc1)C(=O)O; NMePhe(4-F) = CN[C@@H](Cc1ccc(F)cc1)C(=O)O; NMePhe(4-I) = CN[C@@H](Cc1ccc(I)cc1)C(=O)O; NMeGly(cPent) = CN[C@H](C(=O)O)C1CCCC1; NMe4Pal = CN[C@@H](Cc1ccncc1)C(=O)O; NMeCha = CN[C@@H](CC1CCCCC1)C(=O)O; NMeI = CC[C@H](C)[C@H](NC)C(=O)O; dNMeF = CN[C@H](Cc1ccccc1)C(=O)O; NMeD = CN[C@@H](CC(=O)O)C(=O)O; NMeL = CN[C@@H](CC(C)C)C(=O)O; Morpholide = C1CN(*)CCO1; NMeA = CN[C@@H](C)C(=O)O; Piperidide = C1CCN(*)CC1; Ac5c = NC1(C(=O)O)CCCC1; Aze = O=C(O)[C@@H]1CCN1; Sar = CNCC(=O)O
# Target: T1, Kras and SOS1 (biotin-tagged human Kras loaded with GDP, His-tagged human SOS1) (Homo sapiens, UniProt P01116, G12D)
# T1 construct: made in house; host or cells: E. coli (stated for Kras only)
# Assay: Protein-protein interaction inhibition between Kras and SOS1 (KrasGl2D-SOS PPI) using AlphaScreen
# Format: binding
# Conditions: AlphaScreen; biotin-tagged human Kras loaded with GDP, His-tagged human SOS1; read-out: KRAS G12D-SOS PPI IC50
# Outline: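 AlphaScreen format: Ni donor beads capture His-SOS1, streptavidin acceptor beads capture biotinylated Kras (E. coli-expressed, GDP-loaded post-purification). Excite 680 nm, read 520-620 nm.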
# T1 sequence (P01116 1-188 isoform P01116-2 G12D): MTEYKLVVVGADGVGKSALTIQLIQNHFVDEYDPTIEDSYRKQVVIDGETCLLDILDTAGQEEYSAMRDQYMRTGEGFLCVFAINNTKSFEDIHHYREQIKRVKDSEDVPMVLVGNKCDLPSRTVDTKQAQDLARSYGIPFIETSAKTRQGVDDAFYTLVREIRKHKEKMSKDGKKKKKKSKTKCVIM
row,SMILES,IC50
1,"CC[C@H](C)[C@@H]1NC(=O)[C@H](CC(C)C)N(C)C(=O)C[C@@H](C(=O)N(C)C)N(C)C(=O)[C@H]([C@@H](C)CC)N(C)C(=O)C2(CCCC2)NC(=O)[C@H](Cc2ccc(F)cc2)N(C)C(=O)[C@H](CCc2cc(F)c(C(F)(F)F)c(F)c2)NC(=O)CN(C)C(=O)[C@H](Cc2ccc(C)cc2)N(C)C(=O)[C@@H]2CCN2C(=O)[C@H](C)N(C)C1=O [Compound 1952] ([NMeL]I[NMeA][Aze][NMePhe(4-Me)][Sar][hPhe(3,5-F2-4-CF3)][NMePhe(4-F)][Ac5c][NMeI][NMeD]-NMe2; lactam N-11)",8.1 nM
2,CC[C@H](C)[C@@H]1NC(=O)[C@H](C)N(C)C(=O)C[C@@H](C(=O)N(C)C)N(C)C(=O)[C@H]([C@@H](C)CC)N(C)C(=O)C2(CCCC2)NC(=O)[C@H](Cc2ccc(I)cc2)N(C)C(=O)[C@H](CCc2ccc(C(F)(F)F)c(Cl)c2)NC(=O)CN(C)C(=O)[C@H](Cc2ccc(C)cc2)N(C)C(=O)[C@@H]2CCN2C(=O)[C@H](C)N(C)C1=O [Compound 1953] ([NMeA]I[NMeA][Aze][NMePhe(4-Me)][Sar][hPhe(3-Cl-4-CF3)][NMePhe(4-I)][Ac5c][NMeI][NMeD]-NMe2; lactam N-11),51 nM
3,CC[C@H](C)[C@@H]1NC(=O)[C@H](C)N(C)C(=O)C[C@@H](C(=O)N(C)C)N(C)C(=O)[C@H]([C@@H](C)CC)N(C)C(=O)C2(CCCC2)NC(=O)[C@H](Cc2ccc(C#N)cc2)N(C)C(=O)[C@H](CCc2ccc(C(F)(F)F)c(Cl)c2)NC(=O)CN(C)C(=O)[C@H](Cc2ccc(C)cc2)N(C)C(=O)[C@@H]2CCN2C(=O)[C@H](C)N(C)C1=O [Compound 1959] ([NMeA]I[NMeA][Aze][NMePhe(4-Me)][Sar][hPhe(3-Cl-4-CF3)][NMePhe(4-CN)][Ac5c][NMeI][NMeD]-NMe2; lactam N-11),5.2 nM
4,CC[C@H](C)[C@@H]1NC(=O)[C@H](CC(C)C)N(C)C(=O)C[C@@H](COCC(=O)NC(C)(C)C)NC(=O)[C@H]([C@@H](C)CC)N(C)C(=O)C2(CCCC2)NC(=O)[C@@H]2CCCN2C(=O)[C@H](CCc2ccc(C(F)(F)F)c(Cl)c2)NC(=O)CN(C)C(=O)[C@H](Cc2ccc(C)cc2)N(C)C(=O)[C@@H]2CCN2C(=O)[C@H](C)N(C)C1=O [Compound 1960] ([NMeL]I[NMeA][Aze][NMePhe(4-Me)][Sar][hPhe(3-Cl-4-CF3)]P[Ac5c][NMeI]; linker N-C via X5),56 nM
5,CC[C@H](C)[C@@H]1NC(=O)[C@H](CC(C)C)N(C)C(=O)C[C@@H](C(=O)N(C)C)N(C)C(=O)[C@H]([C@@H](C)CC)N(C)C(=O)C2(CCCC2)NC(=O)[C@H](Cc2ccncc2)N(C)C(=O)[C@H](CCc2ccc(C(F)(F)F)c(Cl)c2)NC(=O)CN(C)C(=O)[C@H](Cc2ccc(C)cc2)N(C)C(=O)[C@@H]2CCN2C(=O)[C@H](C)N(C)C1=O [Compound 1962] ([NMeL]I[NMeA][Aze][NMePhe(4-Me)][Sar][hPhe(3-Cl-4-CF3)][NMe4Pal][Ac5c][NMeI][NMeD]-NMe2; lactam N-11),1.4 nM
6,CC[C@H](C)[C@@H]1NC(=O)[C@H](CC(C)C)N(C)C(=O)C[C@@H](C(=O)N(C)C)N(C)C(=O)[C@H]([C@@H](C)CC)N(C)C(=O)C2(CCCC2)NC(=O)[C@H](Cc2ccc(Br)cc2)N(C)C(=O)[C@H](CCc2ccc(C(F)(F)F)c(Cl)c2)NC(=O)CN(C)C(=O)[C@H](Cc2ccc(C)cc2)N(C)C(=O)[C@@H]2CCN2C(=O)[C@H](C)N(C)C1=O [Compound 1964] ([NMeL]I[NMeA][Aze][NMePhe(4-Me)][Sar][hPhe(3-Cl-4-CF3)][NMePhe(4-Br)][Ac5c][NMeI][NMeD]-NMe2; lactam N-11),36 nM
7,CC[C@H](C)[C@@H]1NC(=O)[C@H](CC(C)C)N(C)C(=O)C[C@@H](C(=O)N(C)C)N(C)C(=O)[C@H]([C@@H](C)CC)N(C)C(=O)C2(CCCC2)NC(=O)[C@H](Cc2cccc(OC(F)(F)F)c2)N(C)C(=O)[C@H](CCc2ccc(C(F)(F)F)c(Cl)c2)NC(=O)CN(C)C(=O)[C@H](Cc2ccc(C)cc2)N(C)C(=O)[C@@H]2CCN2C(=O)[C@H](C)N(C)C1=O [Compound 1970] ([NMeL]I[NMeA][Aze][NMePhe(4-Me)][Sar][hPhe(3-Cl-4-CF3)][X38][Ac5c][NMeI][NMeD]-NMe2; lactam N-11),52 nM
8,CC[C@H](C)[C@@H]1NC(=O)[C@H](CC(C)C)N(C)C(=O)C[C@@H](C(=O)N(C)C)N(C)C(=O)[C@H]([C@@H](C)CC)N(C)C(=O)[C@H](C)NC(=O)[C@H](Cc2ccncc2)N(C)C(=O)[C@H](CCc2ccc(C(F)(F)F)c(Cl)c2)NC(=O)CN(C)C(=O)[C@H](Cc2ccc(C)cc2)N(C)C(=O)[C@@H]2CCN2C(=O)[C@H](C)N(C)C1=O [Compound 1973] ([NMeL]I[NMeA][Aze][NMePhe(4-Me)][Sar][hPhe(3-Cl-4-CF3)][NMe4Pal]A[NMeI][NMeD]-NMe2; lactam N-11),7.1 nM
9,CC[C@H](C)[C@@H]1NC(=O)[C@H](CC(C)C)N(C)C(=O)C[C@@H](C(=O)N2CCOCC2)N(C)C(=O)[C@H]([C@@H](C)CC)N(C)C(=O)C2(CCCC2)NC(=O)[C@@H]2CCCN2C(=O)[C@H](CCc2ccc(C(F)(F)F)c(Cl)c2)NC(=O)CN(C)C(=O)[C@H](CC2CCCCC2)N(C)C(=O)CN(C)C(=O)CN(C)C1=O [Compound 1979] ([NMeL]I[Sar][Sar][NMeCha][Sar][hPhe(3-Cl-4-CF3)]P[Ac5c][NMeI][NMeD]-Morpholide; lactam N-11),0.64 nM
10,CC[C@H](C)[C@@H]1NC(=O)[C@H](C)N(C)C(=O)C[C@@H](C(=O)N(C)C)N(C)C(=O)[C@H]([C@@H](C)CC)N(C)C(=O)C2(CCCC2)NC(=O)[C@H](Cc2cccc(C#N)c2)N(C)C(=O)[C@H](CCc2ccc(C(F)(F)F)c(Cl)c2)NC(=O)CN(C)C(=O)[C@H](Cc2ccc(C)cc2)N(C)C(=O)[C@@H]2CCN2C(=O)[C@H](C)N(C)C1=O [Compound 1981] ([NMeA]I[NMeA][Aze][NMePhe(4-Me)][Sar][hPhe(3-Cl-4-CF3)][NMePhe(3-CN)][Ac5c][NMeI][NMeD]-NMe2; lactam N-11),5.1 nM
11,CC[C@H](C)[C@@H]1NC(=O)[C@H](CC(C)C)N(C)C(=O)C[C@@H](C(=O)N(C)C)N(C)C(=O)[C@H](C2CCCC2)N(C)C(=O)[C@H](C(C)C)NC(=O)[C@H](Cc2ccncc2)N(C)C(=O)[C@H](CCc2ccc(C(F)(F)F)c(Cl)c2)NC(=O)CN(C)C(=O)[C@H](CC2CCCCC2)N(C)C(=O)[C@@H]2CCN2C(=O)[C@H](C)N(C)C1=O [Compound 1982] ([NMeL]I[NMeA][Aze][NMeCha][Sar][hPhe(3-Cl-4-CF3)][NMe4Pal]V[NMeGly(cPent)][NMeD]-NMe2; lactam N-11),47 nM
12,"CC[C@H](C)[C@@H]1NC(=O)[C@H](C)N(C)C(=O)C[C@@H](C(=O)N(C)C)N(C)C(=O)[C@H]([C@@H](C)CC)N(C)C(=O)C2(CCCC2)NC(=O)[C@H](Cc2ccc(F)cc2)N(C)C(=O)[C@H](CCc2cc(F)c(C(F)(F)F)c(F)c2)NC(=O)CN(C)C(=O)[C@H](Cc2ccc(C(F)(F)F)cc2)N(C)C(=O)[C@@H]2CCN2C(=O)[C@H](C)N(C)C1=O [Compound 1986] ([NMeA]I[NMeA][Aze][NMePhe(4-CF3)][Sar][hPhe(3,5-F2-4-CF3)][NMePhe(4-F)][Ac5c][NMeI][NMeD]-NMe2; lactam N-11)",11 nM
13,CC[C@H](C)[C@@H]1NC(=O)[C@H](CC(C)C)N(C)C(=O)C[C@@H](C(=O)N2CCCCC2)N(C)C(=O)[C@H]([C@@H](C)CC)N(C)C(=O)C2(CCCC2)NC(=O)[C@@H](Cc2ccccc2)N(C)C(=O)[C@H](CCc2ccc(C(F)(F)F)c(Cl)c2)NC(=O)CN(C)C(=O)[C@H](Cc2ccc(C)cc2)N(C)C(=O)[C@@H]2CCN2C(=O)[C@H](C)N(C)C1=O [Compound 1989] ([NMeL]I[NMeA][Aze][NMePhe(4-Me)][Sar][hPhe(3-Cl-4-CF3)][dNMeF][Ac5c][NMeI][NMeD]-Piperidide; lactam N-11),460 nM
14,CC[C@H](C)[C@@H]1NC(=O)[C@H](CC(C)C)N(C)C(=O)C[C@@H](C(=O)N(C)C)N(C)C(=O)[C@H]([C@@H](C)CC)N(C)C(=O)C2(CCCC2)NC(=O)[C@H](Cc2cccc(OC)c2)N(C)C(=O)[C@H](CCc2ccc(C(F)(F)F)c(Cl)c2)NC(=O)CN(C)C(=O)[C@H](Cc2ccc(C)cc2)N(C)C(=O)[C@@H]2CCN2C(=O)[C@H](C)N(C)C1=O [Compound 1991] ([NMeL]I[NMeA][Aze][NMePhe(4-Me)][Sar][hPhe(3-Cl-4-CF3)][NMePhe(3-OMe)][Ac5c][NMeI][NMeD]-NMe2; lactam N-11),9.2 nM
15,"CC[C@H](C)[C@@H]1NC(=O)[C@H](C)N(C)C(=O)C[C@@H](C(=O)N2CCCCC2)N(C)C(=O)[C@H]([C@@H](C)CC)N(C)C(=O)C2(CCCC2)NC(=O)[C@@H](Cc2ccccc2)N(C)C(=O)[C@H](CCc2cc(F)c(C(F)(F)F)c(F)c2)NC(=O)CN(C)C(=O)[C@H](Cc2ccc(C(F)(F)F)cc2)N(C)C(=O)[C@@H]2CCN2C(=O)[C@H](C)N(C)C1=O [Compound 1992] ([NMeA]I[NMeA][Aze][NMePhe(4-CF3)][Sar][hPhe(3,5-F2-4-CF3)][dNMeF][Ac5c][NMeI][NMeD]-Piperidide; lactam N-11)",280 nM
16,CC[C@H](C)[C@@H]1NC(=O)[C@H](C)N(C)C(=O)C[C@@H](C(=O)N2CCCCC2)N(C)C(=O)[C@H]([C@@H](C)CC)N(C)C(=O)C2(CCCC2)NC(=O)[C@@H](Cc2ccccc2)N(C)C(=O)[C@H](CCc2ccc(C(F)(F)F)c(Cl)c2)NC(=O)CN(C)C(=O)[C@H](Cc2ccc(C)cc2)N(C)C(=O)[C@@H]2CCN2C(=O)[C@H](C)N(C)C1=O [Compound 1997] ([NMeA]I[NMeA][Aze][NMePhe(4-Me)][Sar][hPhe(3-Cl-4-CF3)][dNMeF][Ac5c][NMeI][NMeD]-Piperidide; lactam N-11),220 nM
17,CC[C@H](C)[C@@H]1NC(=O)[C@H](C)N(C)C(=O)C[C@@H](C(=O)N(C)C)N(C)C(=O)[C@H]([C@@H](C)CC)N(C)C(=O)C2(CCCC2)NC(=O)[C@H](Cc2cccc(Br)c2)N(C)C(=O)[C@H](CCc2ccc(C(F)(F)F)c(Cl)c2)NC(=O)CN(C)C(=O)[C@H](Cc2ccc(C)cc2)N(C)C(=O)[C@@H]2CCN2C(=O)[C@H](C)N(C)C1=O [Compound 2000] ([NMeA]I[NMeA][Aze][NMePhe(4-Me)][Sar][hPhe(3-Cl-4-CF3)][NMePhe(3-Br)][Ac5c][NMeI][NMeD]-NMe2; lactam N-11),15 nM
